Data as given in patent publication US20120142627A1, “MONOPHOSPHATE PRODRUGS OF DAPD AND ANALOGS THEREOF” (Emory University, priority 2010, published 2012).
Like-named read-outs stand apart in the source and are kept apart here.

Assays:
PBM cells = assay: Intracellular metabolites (DXG-TP, DAPD-TP) in PBM cells; type: in vitro ADME, human; details: for DXG-TP levels: PBM cells incubated for 4 h at 50 µM, mean and S.D.; for intracellular DXG-TP detected (in words) / intracellular phosphorylated DAPD / DAPD-TP detected (in words): PBM cells, 50 μM, 4 h, 37° C.
Procedure: Reexamination of the intracellular metabolism of DAPD, which contains a 6-amino group, at 50 μM for 4 h in PBM cells at 37° C. resulted the detection of high levels of DXG-TP in addition to DXG and DXG-MP.
PBM cells were incubated with the corresponding compounds for 4 h […]. The data plotted represent the mean value and S.D. of experiments with PBM cells.

adenosine deaminase = assay: Adenosine deaminase assay; type: biochemical; details: 7 minutes, 0.002 units of enzyme, 50 μM, pH 7.4, 25° C.
Procedure: To determine the propensity for deamination of the 6-substituted-2-amino purine dioxolane monophosphate prodrugs by adenosine deaminase, nucleoside compounds were incubated with the commercially available purified enzyme, and the reaction was followed spectrophotometrically. Reaction conditions were 50 mM potassium phosphate, pH 7.4, with 50 μM nucleoside analog in 0.5 mL at 25° C. Reaction time was 7 minutes with 0.002 units of enzyme and 120 minutes with 0.2 units of enzyme. (The unit definition of adenosine deaminase is one unit will deaminate 1.0 μmol of adenosine to inosine per minute at pH 7.5 at 25° C.) Deoxyadenosine was the positive control which was 59% deaminated under the given conditions in 7 minutes with 0.002 units of enzyme. Deoxyguanosine was the negative control. Optical density was measured at 265 nm or 285 nm. The difference in optical density between the beginning and the end of the experiment was divided by the extinction coefficient then multiplied by the volume of the reaction to determine the number of mols of substrate transformed into product. Mols of product were divided by mols of substrate equivalent to a 100% complete reaction then multiplied by 100 to obtain percent deamination. The limit of detection was 0.001 optical density units.

HIV-1LAI = assay: Anti-HIV (in PBM cells) assay; type: cell-based; details: Human immunodeficiency virus 1, PBMC; for EC50: read-out: HIV EC50; for EC90: read-out: HIV EC90
Procedure: Stock solutions (20-40 mM) of the compounds were prepared in sterile DMSO and then diluted to the desired concentration in growth medium. Cells were infected with the prototype HIV-1LAI at a multiplicity of infection of 0.01. Virus obtained from the cell supernatant was quantified on day 6 after infection by a reverse transcriptase assay using (rA)n.(dT)12-18 as template-primer. The DMSO present in the diluted solution (<0.1%) had no effect on the virus yield. AZT was included as positive control.

human PBM cells = assay: Cytotoxicity in human PBM cells; type: cell-based
Procedure: v) Cellular Toxicity Assays: 6-Substituted-2-amino purine dioxolane monophosphate prodrugs were evaluated for their potential toxic effects on P4/R5 cells, MT-2 cells and uninfected PHA-stimulated human PBM cell. Log-phase P4/R5, MT-2, and PHA-stimulated human PBM cells were seeded at 5×10^3 to 5×10^4 cells/well in 96-well cell culture plates containing 10-fold serial dilutions of the test drug. The cultures were incubated for 2-4 days, after which 3-(4,5-dimethylthiazol-2-yl)-2,5-diphenyltetrazolium bromide (MIT) dye solution (Promega, Madison, Wis.) were added to each well and incubated overnight. The reaction was stopped with stop solubilization solution (Promega, Madison, Wis.) and plates were read at a wavelength of 570 nm.

[1] = system: CEM (human lymphoblastoid) cells; assay: Cytotoxicity in CEM cells; details: Lymphoblastoid cell, read-out: CEM IC50
Excerpt: (§1) The toxicity of the compounds can be assessed in Vero, human PBM, CEM (human lymphoblastoid), MT-2, and HepG2 cells, as described previously (see Schinazi R. F., Sommadossi J.-P., Saalmann V., Cannon D. L., Xie M.-Y., Hart G. C., Smith G. A. & Hahn E. F. Antimicrob. Agents Chemother. 1990, 34, 1061-67). Cycloheximide can be included as positive cytotoxic control, and untreated cells exposed to solvent can be included as negative controls. The cytotoxicity IC50 can be obtained from the concentration-response curve using the median effective method described previously (see Chou T.-C. & Talalay P. Adv. Enzyme Regul. 1984, 22, 27-55; Belen'kii M. S. & Schinazi R. F. Antiviral Res. 1994, 25, 1-11).

Vero cells = assay: Cytotoxicity in Vero cells; details: Chlorocebus sabaeus, read-out: Vero IC50
Excerpt: as §1

[2] = system: PHA-stimulated human PBMCs and CEM cells; details: cited from earlier work

Structure (SMILES) | DXG-TP levels (PBM cells) [pmol/10^6 cells] | intracellular DXG-TP detected (in words) (PBM cells) | intracellular phosphorylated DAPD / DAPD-TP detected (in words) (PBM cells) | IC50 [1] [µM] | IC50 (Vero cells) [µM] | further results
Nc1nc(Cl)c2ncn(C3COC(CO)O3)c2n1 (centres unmarked) [6-Cl-DXG] | 0.10 |  |  |  |  | 
COc1nc(N)nc2c1ncn2C1COC(CO)O1 (centres unmarked) [6-OMe-DXG] | 0.55 |  |  |  |  | 
Nc1nc2c(ncn2[C@H]2CO[C@@H](CO)O2)c(=O)[nH]1 [DXG, (−)-β-D-dioxolane guanine] | 1.75 ± 0.07 |  |  |  |  | 
Nc1ncnc2c1ncn2[C@H]1C[C@H](O)[C@@H](CO)O1 [Deoxyadenosine] |  |  |  |  |  | percent deaminated by adenosine deaminase (adenosine deaminase): 59%
CCOC(=O)[C@H](C)NP(=O)(OC[C@@H]1OC[C@H](n2cnc3c(N)nc(N)nc32)O1)Oc1ccccc1 (some centres unmarked) [RS-864] |  | low levels | very high levels | > 100 | > 100 | EC50 (HIV-1LAI): 0.24 µM; EC90 (HIV-1LAI): 1.3 µM; PBM IC50 (printed as % @ 100 μM) (human PBM cells; @ 100 μM): 66.5%
Nc1nc(N)c2ncn([C@H]3CO[C@@H](CO)O3)c2n1 [DAPD] |  | high levels | no phosphorylated forms of DAPD were detected | > 100 | > 100 | EC50 (HIV-1LAI; human PBM cells): 1 µM; EC90 (HIV-1LAI; human PBM cells): 6.5 µM; IC50 (human PBM cells; Homo sapiens, PBMC, cytotoxicity): > 100 µM; DAPD level in PBMCs relative to CEM cells [2]: 27 fold; phosphorylation of DAPD to mono-, di-, or triphosphate forms ([2]; either cell type): No phosphorylation
